Reference: patent US20130274237A1, “COMPOSITION INCLUDING CHLOROPHYLL A AS AN ACTIVE INGREDIENT FOR PREVENTING AND TREATING TH2-MEDIATED IMMUNOLOGICAL DISEASES” (GWANGJU INSTITUTE OF SCIENCE AND TECHNOLOGY, priority 2009, published 2013)
“And” between values parts separate entries of the source, which are not always exact repeats. Equal entries are not always repeated.

Legend:
[1] = system: degranulation of mast cells; assay: Histology: mast cells per degranulation level; type: in vivo, NC/Nga mice; settings: for No. of Mast Cells per value of degranulation level 1 / No. of Mast Cells per value of degranulation level 1, mean: intermediate level of degranulation; for No. of Mast Cells per value of degranulation level 1 / No. of Mast Cells per value of degranulation level 0 / No. of Mast Cells per value of degranulation level 2: individual mouse; for No. of Mast Cells per value of degranulation level 1, mean / No. of Mast Cells per value of degranulation level 0, mean / No. of Mast Cells per value of degranulation level 2, mean: mean of 5 mice; for No. of Mast Cells per value of degranulation level 0 / No. of Mast Cells per value of degranulation level 0, mean: normal degranulation; for No. of Mast Cells per value of degranulation level 2 / No. of Mast Cells per value of degranulation level 2, mean: serious level of degranulation
Procedure: (§1) 4-7) Histology (H & E, Toluidine Blue Stain) • d. Skin tissues were fixed in 10% formalin for at least 24 hours, prepared into paraffin blocks, cut into pieces in the size of 4 μm, dyed with hematoxylin & eosin (Sigma, USA), and then dyed again with toluidine blue (Sigma, USA) for more accurate identification of inflammatory cells.

mast cells = assay: Histology: number of mast cells in skin (toluidine blue, x200); type: in vivo, NC/Nga mice; settings: for Average No. of Mast Cells × 200: individual mouse; for Average No. of Mast Cells × 200, Group Mean: mean of 5 mice
Procedure: as §1

[2] = system: dorsal skin of NC/Nga mice induced with atopic dermatitis using DNCB; assay: Dorsal skin inflammation of mice induced with atopic dermatitis (clinical images); type: in vivo; settings: 15th week, versus positive control, in words
Excerpt: 4-6) Dorsal Skin Inflammation of a Mouse Induced with Atopic Dermatitis • c. The body weight of a mouse was not increased due to DNCB solution used for inducing atopy, however, there was no decrease in body weight by the administration of chlorophyll a. In the positive control group coated with only distilled water after atopy induction using DNCB, there were observed a thick cornified layer and inflammation and damage on skin.

[3] = Body weight of atopy-induced NC/Nga mice; settings: DNCB atopy-induced NC/Nga mice
Excerpt: 20 fourteen-week old female NC/Nga mice (Central Lab. Animal Inc., Korea) with a body weight of about 20 g were used. The experimental animals were allowed to adapt for 7 days in the animal rooms before the experiment, and observed for general symptoms.
A test solution prepared by dissolving a mixture consisting of acetone and olive oil in 3:1 ratio in dinitrochlorobenzene (DNCB) to a concentration of about 1% to about 0.2% was coated on the skin of the NC/Nga mice to induce atopic dermatitis.
Body weight was measured twice from the time when the test material was administered.

## C=Cc1c(C)c2cc3nc(c4c5[n-]c(cc6nc(cc1[n-]2)C(C)=C6CC)c(C)c5C(=O)[C@@H]4C(=O)OC)[C@@H](CCC(=O)OC/C=C(\C)CCC[C@H](C)CCC[C@H](C)CCCC(C)C)[C@@H]3C.[Mg+2] [chlorophyll a]
[1]; 1 mg/kg oral daily, in words
  degranulation count of the mast cells: not significantly improved
[1]; 1 mg/kg oral daily, 1 mg/kg
  No. of Mast Cells per value of degranulation level 1: 2.87 and 1.44 and 1.91 and 1.75 and 2.57
  No. of Mast Cells per value of degranulation level 1, mean: 2.11±0.59 and 2.11
  No. of Mast Cells per value of degranulation level 0: 4.12 and 5.55 and 2.82 and 5.89 and 4.83
  No. of Mast Cells per value of degranulation level 0, mean: 4.64±1.22 and 4.64
  No. of Mast Cells per value of degranulation level 2: 1.56 and 0.62 and 0.66 and 1.25 and 2.38
  No. of Mast Cells per value of degranulation level 2, mean: 1.30±0.73 and 1.30
[1]; 5 mg/kg oral daily, 5 mg/kg
  No. of Mast Cells per value of degranulation level 1: 0.75 and 2.31 and 2.76 and 2.57 and 4.31
  No. of Mast Cells per value of degranulation level 1, mean: 2.54±1.27 and 2.54
  No. of Mast Cells per value of degranulation level 0: 5.98 and 6.31 and 4.51 and 7.41 and 3.81
  No. of Mast Cells per value of degranulation level 0, mean: 5.60±1.44
  No. of Mast Cells per value of degranulation level 2: 0.44 and 1.44 and 5.45 and 1.82 and 3.00
  No. of Mast Cells per value of degranulation level 2, mean: 2.43±1.92 and 2.43
[1]; 5 mg/kg oral daily
  No. of Mast Cells per value of degranulation level 0, mean: 5.60
Mast cells; 1 mg/kg oral daily
  Average No. of Mast Cells × 200: 9.3 and 7.6 and 5.4 and 8.9 and 10.4
  Average No. of Mast Cells × 200, Group Mean: 8.32±1.195 and 8.32 ± 1.915 and 8.32
Mast cells; 5 mg/kg oral daily
  Average No. of Mast Cells × 200: 7.3 and 10 and 12.7 and 11.8 and 11.1
  Average No. of Mast Cells × 200, Group Mean: 10.8±2.083 and 10.58 ± 2.083 and 10.58
[2]; 1 mg/kg oral daily
  tissue damage of dorsal skin: significant decreases
[2]; 5 mg/kg oral daily
  tissue damage of dorsal skin: significant decreases
[3]; 1 mg/kg oral daily, day 1, individual mouse, 1 mg/kg
  body weight: 25.6 g and 27.4 g and 24.5 g and 24 g and 26.1 g
[3]; 1 mg/kg oral daily, day 1, mean of 5 mice
  body weight, group mean: 25.52 g
[3]; 1 mg/kg oral daily, day 3, individual mouse, 1 mg/kg
  body weight: 25.7 g and 27.6 g and 25.8 g and 25.5 g and 27.1 g
[3]; 1 mg/kg oral daily, day 3, mean of 5 mice
  body weight, group mean: 26.34 g
[3]; 1 mg/kg oral daily, day 5, individual mouse, 1 mg/kg
  body weight: 27.3 g and 28.2 g and 26.5 g and 26 g and 27.8 g
[3]; 1 mg/kg oral daily, day 5, mean of 5 mice
  body weight, group mean: 27.16 g
[3]; 1 mg/kg oral daily, day 7, individual mouse, 1 mg/kg
  body weight: 27.3 g and 27.6 g and 26.5 g and 24.7 g and 28.6 g
[3]; 1 mg/kg oral daily, day 7, mean of 5 mice
  body weight, group mean: 26.94 g
[3]; 1 mg/kg oral daily, day 9, individual mouse, 1 mg/kg
  body weight: 28.4 g and 27.4 g and 25.8 g and 25.7 g and 27.7 g
[3]; 1 mg/kg oral daily, day 9, mean of 5 mice
  body weight, group mean: 27 g
[3]; 1 mg/kg oral daily, day 11 (time of sacrifice), mean of 5 mice, 1 mg/kg
  body weight, group mean: 28.36 ± 1.045 g and 28.36 g
[3]; 1 mg/kg oral daily, day 11, individual mouse, 1 mg/kg
  body weight: 29 g and 28.9 g and 27.5 g and 27 g and 29.4 g
[3]; 5 mg/kg oral daily, day 1, individual mouse, 5 mg/kg
  body weight: 24.9 g and 28.6 g and 27.5 g (2×) and 27.1 g
[3]; 5 mg/kg oral daily, day 1, mean of 5 mice
  body weight, group mean: 27.12 g
[3]; 5 mg/kg oral daily, day 3, individual mouse, 5 mg/kg
  body weight: 24.8 g and 29.6 g and 27.1 g and 29 g and 27.4 g
[3]; 5 mg/kg oral daily, day 3, mean of 5 mice
  body weight, group mean: 27.58 g
